These results are taken from patent publication US9101566B2, “Fermentation product of cereal plant-derived material and immunomodulator” (KIRIN HOLDINGS KABUSHIKI KAISHA, priority 2009, dated 2015).

A short description of one data set: Solubility in solvent. It is filed as physicochemical.
Data set [1] has as its system C57BL/6 mDCs co-cultured with OT-II mouse naive CD4+ T cells. Nature of the data set: Cytokine profile of CD4+ T cells induced by DCs treated with 14-DHE, antigen-specific T cell reaction (Example 11). The settings on record: 0.1 μM OVA323-339 peptide, day 4, vs control mDCs. The data set is classed as cell-based. Here is the method: mDCs were prepared by the method same as that in the MLR experiment. Naive CD4^+ T cells were prepared from OT-II mice (Charles River) in which TCR of CD4^+ T cells is specific for OVA323-339 epitope on the C57BL/6 background. Mixed culture was performed at a ratio of mDC:CD4^+ T cell of 1:5 in the presence of 0.1 μM OVA323-339 peptide. The culture supernatant was recovered on day 4 of culture, and then TNF-α, IFN-γ, IL-6, IL-10, and IL-17 were measured by ELISA.

Data set [2] deals with naive CD4+ T cells from BALB/c mouse spleen. Nature of the data set: Regulatory T-cell-inducing effect of 14-DHE on CD4+ naive T cells (Example 13). It is filed as cell-based. Here is the method:
Naive CD4^+ T cells were isolated from BALB/c mouse spleen-derived cells using the CD4^+CD62L^+ T cell isolation kit II (mouse) (Miltenyi Biotec). CD4^+ T cells were seeded at a density of 5×10^5 cells/mL to 48-well plates (2.5×10^5 cells per well), and then 1 μg/mL anti-CD3 antibody and 0.2 μg/mL anti-CD28 antibody were added. At this time, 2 types of media (i.e., media with and without TGF-β) were used. 14-DHE was added at a concentration of 0, 50, 100, 500, and 1000 nM. Five days later, cells were recovered. The proportion of CD25^+FoxP3^+ cells in CD4^+ T cells was determined using a flow cytometer. Prior to flow cytometry, cell surface staining was performed using CD4-APC, CD25-FITC and CD3e-PerCP, cell membrane permeabilization treatment was performed using the FoxP3 staining buffer set (eBioscience), and then FoxP3-PE staining was performed.

Data set [3] deals with DCs induced from C57BL/6 mouse bone marrow cells. Nature of the data set: Timing and duration of the DC-activation-suppressing effect of 14-DHE (Example 14). The data set is classed as cell-based. Here is the method: In a manner similar to those of the Examples above, C57BL/6 mouse bone marrow cells were prepared and then DCs were induced using Flt-3. The concentration of the added 14-DHE was 3 μM in all cases. The drug residence time in the culture system was controlled by medium exchange. Inflammation was induced using 5 ng/mL LPS, and then the expression level of CD86 was measured using a flow cytometer, so that the characteristics of regulatory DCs were determined. At this time, the cells that had been treated with LPS and without 14-DHE were used as control cells. The median fluorescence intensity (Median Fluorescence Intensity: MFI) of CD86 in the cells treated with 14-DHE was divided by MFI of untreated cells. The determined values indicate: 1 or more, no effect (score: −); 0.7-0.99, weak effect (score: +); 0.4-0.69, moderate effect (score: ++); and 0.4 or less, strong effect (score: +++).

For data set [4], the system named is mDCs (CD11b+CD11c+B220-) of EAE mice. Put plainly: EAE model, day 11 autopsy: mDC activation markers. It is filed as in vivo, mouse. As to conditions: autopsy on day 11. Here is the method: On day 0, the 35-55 peptide (MOG35-55, Operon), a glycoprotein of myelin oligodendroglial cells, as an antigen was mixed with complete Freund's adjuvant (CFA, Difco) and then the mixture was subcutaneously administered at a dose of 200 μg/animal. Subsequently, pertussis toxin (Wako Pure Chemical Industries, Japan) was intraperitoneally administered at a dose of 200 ng/animal on day 1 and day 3, thereby inducing the onset of multiple sclerosis. During days 7 to 18, 14-DHE was intraperitoneally administered at a dose of 10 μg/animal once a day. To the vehicle group, the following solvent for 14-DHE was administered: 10% ethanol (Wako Pure Chemical Industries, Japan)/10% Cremophor (Wako Pure Chemical Industries, Japan)/80% PBS (Takara, Japan). Mice were autopsied on day 11 (when inflammation was thought to take place in vivo) to obtain biochemical data. […] A gate was set on mDCs, which are CD11b^+CD11c^+B220^− cells, and I-A/I-E (MHC class II), CD86, and CD80 were measured as activation markers.

As for `CC(C)[C@@H](C)/C=C/[C@@H](C)[C@H]1CC=C2C3=CC=C4C[C@@H](O)CC[C@]4(C)[C@H]3CC[C@@]21C` [Sample 14-DHE, ergosta-5,7,14,22-tetraen-3β-ol], in the data set “Solubility in solvent” (chloroform), the “Solubility in solvent: chloroform” value is “readily soluble”. For the same molecule, the “Solubility in solvent: ethanol” value in “Solubility in solvent” (ethanol) is on record as “hardly soluble”. Further, the “Solubility in solvent: water” value in the data set “Solubility in solvent” (water) was “insoluble”. In data set [1], the “IFN-γ production (ELISA)” value is “no statistically significant difference was observed”, the “IL-6 production (ELISA)” value is given as “a significant decrease”, the “IL-10 production (ELISA)” value is given as “significant increase” and the “IL-17 production (ELISA)” value was “no statistically significant difference was observed”. In data set [1], the “TNF-α production (ELISA)” value was “a significant decrease”. For the same molecule, the “effective concentration on T cells lower compared with that of DCs” value in data set [2] (T cells vs DCs (1 μM)) is given as at least 20 times. Besides, the “proportion of CD25+FoxP3+ cells in CD4+ T cells” value in data set [2] (absence of TGF-β, 14-DHE 50-1000 nM, 5 days) was “no change”. Also, the “increase in proportion of CD25+FoxP3+ cells compared with no 14-DHE” value in data set [2] (presence of TGF-β, 14-DHE 50 nM (lowest concentration), 5 days) was at least 5 times. Further, in data set [3] (14-DHE 3 μM), the “duration of the effect” value turned out to be 72 h. Besides, in data set [3] (14-DHE 3 μM added for 5 or 6 days from initiation of differentiation), the “DC activation (CD86)-suppressing effect” value is “the degree of the effect significantly decreased”. Also, in data set [3] (14-DHE 3 μM added for 7 days starting from initiation of DC differentiation, LPS 5 ng/mL), the “DC activation (CD86)-suppressing effect” value is listed as “strong effect”. Further, the “DC activation (CD86)-suppressing effect” value in data set [3] (14-DHE 3 μM addition begun on day 7 when DC differentiation was completed) is listed as “strong effect”. Further, in data set [3] (14-DHE absent at the time of adding LPS), the “DC activation (CD86)-suppressing effect” value is “decrease in the effect was observed”. Moreover, in data set [3] (addition begun on day 0 or on day 7), the “time within which the effect significantly decreased” value was at most 72 h. Moreover, the “time required for 14-DHE to exhibit its effect” value in data set [3] (addition from initiation of DC differentiation) is on record as at least 7 days. Besides, in data set [4], the “CD80 on mDCs, lymph node” value is given as “significant decrease”; the “CD86 on mDCs, lymph node” value is “decreasing trend”; the “I-A/I-E (MHC class II) on mDCs, lymph node” value was “decreasing trend”; the “I-A/I-E on mDCs, spinal cord” value is on record as “significant decrease”.
